Legend:
Format in all cases: biochemical
[1] = target: T1, Recombinant Human Anaplastic Lymphoma Kinase (Homo sapiens, UniProt Q9UM73); assay: ALK HTRF kinase assay; settings: compound at 500 nM or 1 mM; 90 μM ATP
T1 construct: purchased Invitrogen, Carlsbad, Calif
In short: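 Readout was HTRF between a Eu-W1024 anti-phosphotyrosine antibody and streptavidin-APC bound to biotinylated peptide phosphorylated by recombinant human ALK. IC50 values came from a four-parameter logistic fit.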

[2] = target: T2, human JAK3 (a.a. 781-1124) (Homo sapiens, UniProt P52333); assay: In vitro JAK kinase assay (HTRF, phosphorylation of a biotinylated peptide), JAK3; settings: method AA1 (3 μM ATP) or AA2 (1000 μM ATP), not stated per value
T2 construct: JAK3 (a.a. 781-1124); His tag (N); made in house; host or cells: insect cells (baculovirus)
In short: (§1)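 Kinase reactions ran at room temperature for 1 h with ATP matched per isoform (JAK1 90 μM, JAK2 30 μM, JAK3 3 μM). After an EDTA stop, the phosphorylated biotin-peptide was read by HTRF using Eu-Py20 and SA-APC after 40 min binding.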

[3] = target: T3, human JAK1 (a.a. 837-1142) (Homo sapiens, UniProt P23458); assay: In vitro JAK kinase assay (HTRF, phosphorylation of a biotinylated peptide), JAK1; settings: method AA1 (90 μM ATP) or AA2 (1000 μM ATP), not stated per value; read-out: JAK1 IC50
T3 construct: human JAK1 (a.a. 837-1142); His tag (N); made in house; host or cells: insect cells (baculovirus)
In short: as §1

[4] = target: TYK2 (Homo sapiens, UniProt P29597); assay: TYK2 kinase inhibition (Table A1)
[5] = target: T4, human JAK2 (a.a. 828-1132) (Homo sapiens, UniProt O60674); assay: In vitro JAK kinase assay (HTRF, phosphorylation of a biotinylated peptide), JAK2; settings: method AA1 (30 μM ATP) or AA2 (1000 μM ATP), not stated per value
T4 construct: JAK2 (a.a. 828-1132); His tag (N); made in house; host or cells: insect cells (baculovirus)
In short: as §1

T2 sequence (P52333 781-1124): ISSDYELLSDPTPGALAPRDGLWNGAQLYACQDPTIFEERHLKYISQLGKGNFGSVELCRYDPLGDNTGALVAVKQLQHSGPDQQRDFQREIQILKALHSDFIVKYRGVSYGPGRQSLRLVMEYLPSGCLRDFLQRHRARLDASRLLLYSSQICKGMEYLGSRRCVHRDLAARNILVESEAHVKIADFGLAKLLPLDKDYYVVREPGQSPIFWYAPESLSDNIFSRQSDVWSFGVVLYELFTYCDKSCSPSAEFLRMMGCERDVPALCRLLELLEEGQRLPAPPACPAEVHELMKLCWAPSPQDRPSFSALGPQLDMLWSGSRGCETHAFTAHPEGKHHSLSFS
T1 sequence (Q9UM73 19-1620): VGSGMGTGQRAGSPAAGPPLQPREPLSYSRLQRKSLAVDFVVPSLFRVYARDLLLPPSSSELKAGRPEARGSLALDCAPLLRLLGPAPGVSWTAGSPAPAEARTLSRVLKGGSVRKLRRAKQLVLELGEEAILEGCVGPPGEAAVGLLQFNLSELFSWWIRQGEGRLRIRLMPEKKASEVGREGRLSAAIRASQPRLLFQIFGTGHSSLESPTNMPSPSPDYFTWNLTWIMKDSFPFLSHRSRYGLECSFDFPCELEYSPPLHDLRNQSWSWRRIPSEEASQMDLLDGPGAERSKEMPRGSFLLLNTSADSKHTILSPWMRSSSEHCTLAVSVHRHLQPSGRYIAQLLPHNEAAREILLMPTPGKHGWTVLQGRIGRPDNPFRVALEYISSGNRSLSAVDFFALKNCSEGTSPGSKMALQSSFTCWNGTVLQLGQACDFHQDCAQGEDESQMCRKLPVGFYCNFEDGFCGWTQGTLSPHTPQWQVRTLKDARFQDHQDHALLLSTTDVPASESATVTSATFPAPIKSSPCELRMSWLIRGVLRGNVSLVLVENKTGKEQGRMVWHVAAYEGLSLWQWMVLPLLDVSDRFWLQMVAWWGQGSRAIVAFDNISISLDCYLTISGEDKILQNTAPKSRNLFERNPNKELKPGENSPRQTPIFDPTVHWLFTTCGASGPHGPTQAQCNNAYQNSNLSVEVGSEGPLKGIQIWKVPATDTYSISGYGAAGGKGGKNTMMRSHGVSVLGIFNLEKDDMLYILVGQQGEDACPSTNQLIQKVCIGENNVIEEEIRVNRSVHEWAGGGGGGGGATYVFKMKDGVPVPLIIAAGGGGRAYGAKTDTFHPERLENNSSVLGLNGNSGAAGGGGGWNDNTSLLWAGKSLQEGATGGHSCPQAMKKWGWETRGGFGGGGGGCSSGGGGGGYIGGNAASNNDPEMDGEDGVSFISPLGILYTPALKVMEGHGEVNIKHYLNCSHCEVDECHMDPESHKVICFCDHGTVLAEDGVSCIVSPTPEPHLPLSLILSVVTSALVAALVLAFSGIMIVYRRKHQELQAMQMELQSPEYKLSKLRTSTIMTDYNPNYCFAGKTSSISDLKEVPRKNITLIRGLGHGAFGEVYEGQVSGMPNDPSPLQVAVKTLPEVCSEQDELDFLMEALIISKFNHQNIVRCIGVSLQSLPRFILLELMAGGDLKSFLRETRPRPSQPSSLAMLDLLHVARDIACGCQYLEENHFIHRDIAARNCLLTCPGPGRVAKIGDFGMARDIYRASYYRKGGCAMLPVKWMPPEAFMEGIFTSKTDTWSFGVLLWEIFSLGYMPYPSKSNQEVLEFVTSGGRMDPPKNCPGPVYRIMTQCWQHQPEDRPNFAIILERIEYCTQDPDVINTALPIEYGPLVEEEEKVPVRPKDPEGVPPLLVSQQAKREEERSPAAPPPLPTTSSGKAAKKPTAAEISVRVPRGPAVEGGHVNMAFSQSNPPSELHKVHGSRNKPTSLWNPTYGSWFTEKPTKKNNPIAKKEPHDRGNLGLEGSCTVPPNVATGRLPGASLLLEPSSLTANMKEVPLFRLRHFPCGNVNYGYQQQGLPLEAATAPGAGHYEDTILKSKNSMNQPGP
T3 sequence (P23458 849-1154): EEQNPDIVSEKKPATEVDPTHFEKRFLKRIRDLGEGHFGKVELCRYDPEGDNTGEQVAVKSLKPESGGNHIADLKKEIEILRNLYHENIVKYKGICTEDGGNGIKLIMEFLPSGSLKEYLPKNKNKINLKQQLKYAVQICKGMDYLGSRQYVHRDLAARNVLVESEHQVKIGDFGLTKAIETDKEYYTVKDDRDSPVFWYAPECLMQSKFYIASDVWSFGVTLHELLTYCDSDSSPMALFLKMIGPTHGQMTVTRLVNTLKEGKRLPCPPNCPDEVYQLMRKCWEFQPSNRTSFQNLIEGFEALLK
T4 sequence (O60674 828-1132): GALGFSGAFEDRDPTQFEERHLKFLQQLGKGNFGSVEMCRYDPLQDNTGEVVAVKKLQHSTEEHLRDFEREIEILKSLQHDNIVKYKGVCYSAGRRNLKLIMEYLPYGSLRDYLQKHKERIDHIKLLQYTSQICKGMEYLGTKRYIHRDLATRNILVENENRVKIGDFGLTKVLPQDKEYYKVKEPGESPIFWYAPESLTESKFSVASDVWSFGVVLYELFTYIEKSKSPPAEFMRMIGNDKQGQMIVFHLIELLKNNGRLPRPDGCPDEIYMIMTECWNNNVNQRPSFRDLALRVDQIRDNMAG
Sequence of TYK2 (P29597 whole entry): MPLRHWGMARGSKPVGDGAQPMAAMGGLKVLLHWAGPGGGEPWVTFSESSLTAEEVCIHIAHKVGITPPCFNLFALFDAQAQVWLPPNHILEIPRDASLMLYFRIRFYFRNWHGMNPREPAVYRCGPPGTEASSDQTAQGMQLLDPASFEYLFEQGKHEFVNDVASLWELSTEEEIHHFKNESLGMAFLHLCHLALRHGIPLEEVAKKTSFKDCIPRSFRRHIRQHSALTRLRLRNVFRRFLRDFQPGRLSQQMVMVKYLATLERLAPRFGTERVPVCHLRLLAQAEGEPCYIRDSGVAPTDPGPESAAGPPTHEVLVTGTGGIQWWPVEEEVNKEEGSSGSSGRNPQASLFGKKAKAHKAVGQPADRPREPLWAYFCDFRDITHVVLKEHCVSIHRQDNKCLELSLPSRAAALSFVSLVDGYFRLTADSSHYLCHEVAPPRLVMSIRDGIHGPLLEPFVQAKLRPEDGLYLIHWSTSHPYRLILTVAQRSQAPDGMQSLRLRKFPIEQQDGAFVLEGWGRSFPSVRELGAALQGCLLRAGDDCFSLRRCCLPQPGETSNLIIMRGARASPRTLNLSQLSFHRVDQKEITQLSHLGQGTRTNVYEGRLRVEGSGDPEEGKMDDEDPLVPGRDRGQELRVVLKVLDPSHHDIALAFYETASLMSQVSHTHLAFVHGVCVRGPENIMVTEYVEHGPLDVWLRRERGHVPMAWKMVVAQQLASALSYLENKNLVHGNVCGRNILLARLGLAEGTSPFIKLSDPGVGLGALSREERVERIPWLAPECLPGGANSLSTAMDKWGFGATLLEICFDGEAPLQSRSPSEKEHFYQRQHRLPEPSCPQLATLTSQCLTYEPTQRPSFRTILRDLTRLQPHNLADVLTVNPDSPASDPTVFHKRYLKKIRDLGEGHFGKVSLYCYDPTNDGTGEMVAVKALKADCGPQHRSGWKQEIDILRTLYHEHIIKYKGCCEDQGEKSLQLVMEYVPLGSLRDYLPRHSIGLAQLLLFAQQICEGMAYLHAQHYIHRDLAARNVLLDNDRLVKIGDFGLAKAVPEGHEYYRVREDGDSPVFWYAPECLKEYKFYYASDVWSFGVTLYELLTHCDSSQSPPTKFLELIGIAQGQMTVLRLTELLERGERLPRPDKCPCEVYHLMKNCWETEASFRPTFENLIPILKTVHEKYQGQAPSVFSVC

For `Cc1nc(C)c(S(=O)(=O)N2CCC(CC(=O)Nc3ccc4cc3CCc3cncc(c3)Nc3ncc(Cl)c(n3)N4)CC2)s1` [Example A232, N-[6-Chloro-2,4,8,18,22-pentaazatetracyclo[14.3.1.1(3,7).1(9,13)]docosa-1(20),3(22),4,6,9(21),10,12,16,18-nonaen-12-yl]-2-{1-[(2,4-dimethyl-1,3-thiazol-5-yl)sulfonyl]piperidin-4-yl}acetamide bis(trifluoroacetate)], the “ALK % of inhibition at a concentration of 500 nM or 1 mM” value (“ALK % of inhibition” for short) [1] was 43%, the IC50 [2] was > 400 nM and the IC50 [3] was 12 nM. It also gave an IC50 [4] of 326 nM and an IC50 [5] of 94 nM.
With `COc1cccc(N2CCC(CC(=O)Nc3ccc4cc3CCc3cncc(c3)Nc3ncc(Cl)c(n3)N4)CC2)c1C#N` [Example A233, N-[6-Chloro-2,4,8,18,22-pentaazatetracyclo[14.3.1.1(3,7).1(9,13)]docosa-1(20),3(22),4,6,9(21),10,12,16,18-nonaen-12-yl]-2-[1-(2-cyano-3-methoxyphenyl)piperidin-4-yl]acetamide tris(trifluoroacetate)] the “ALK % of inhibition” value [1] was 24%, the IC50 [2] was > 400 nM and the IC50 [3] was 0.4 nM. The IC50 [4] was 26 nM and the IC50 [5] was 19 nM.
With `N#Cc1c(F)cccc1N1CCC(CC(=O)Nc2ccc3cc2CCc2cncc(c2)Nc2ncc(Cl)c(n2)N3)CC1` [Example A234, N-[6-Chloro-2,4,8,18,22-pentaazatetracyclo[14.3.1.1(3,7).1(9,13)]docosa-1(20),3(22),4,6,9(21),10,12,16,18-nonaen-12-yl]-2-[1-(2-cyano-3-fluorophenyl)piperidin-4-yl]acetamide tris(trifluoroacetate)] the “ALK % of inhibition” value [1] was 13%, the IC50 [2] was > 400 nM and the IC50 [3] was 1.5 nM. It also gave an IC50 [4] of 72 nM and an IC50 [5] of 80 nM.
With `N#Cc1c(N2CCC(CC(=O)Nc3ccc4cc3CCc3cncc(c3)Nc3ncc(Cl)c(n3)N4)CC2)cccc1C(F)(F)F` [Example A235, N-[6-Chloro-2,4,8,18,22-pentaazatetracyclo[14.3.1.1(3,7).1(9,13)]docosa-1(20),3(22),4,6,9(21),10,12,16,18-nonaen-12-yl]-2-{1-[2-cyano-3-(trifluoromethyl)phenyl]piperidin-4-yl}acetamide tris(trifluoroacetate)] the “ALK % of inhibition” value [1] was 4.6%, the IC50 [2] was > 400 nM and the IC50 [3] was 12 nM. For the same compound, the IC50 [4] was > 400 nM and the IC50 [5] was 326 nM.
`Cc1cccc(N2CCC(CC(=O)Nc3ccc4cc3CCc3cncc(c3)Nc3ncc(Cl)c(n3)N4)CC2)c1C#N` [Example A236, N-[6-Chloro-2,4,8,18,22-pentaazatetracyclo[14.3.1.1(3,7).1(9,13)]docosa-1(20),3(22),4,6,9(21),10,12,16,18-nonaen-12-yl]-2-[1-(2-cyano-3-methylphenyl)piperidin-4-yl]acetamide tris(trifluoroacetate)] was tested, and the “ALK % of inhibition” value [1] was 16%, the IC50 [2] was > 400 nM and the IC50 [3] was 1.7 nM. The IC50 [4] was > 400 nM and the IC50 [5] was 150 nM.
For `N#Cc1ccc(C(F)(F)F)cc1N1CCC(CC(=O)Nc2ccc3cc2CCc2cncc(c2)Nc2ncc(Cl)c(n2)N3)CC1` [Example A237, N-[6-Chloro-2,4,8,18,22-pentaazatetracyclo[14.3.1.1(3,7).1(9,13)]docosa-1(20),3(22),4,6,9(21),10,12,16,18-nonaen-12-yl]-2-{1-[2-cyano-5-(trifluoromethyl)phenyl]piperidin-4-yl}acetamide tris(trifluoroacetate)], the “ALK % of inhibition” value [1] was 5.9%, the IC50 [2] was > 400 nM and the IC50 [3] was 90 nM. For the same compound, the IC50 [4] was > 400 nM and the IC50 [5] was > 400 nM.
With `Cc1cc(C)c(C#N)c(N2CCC(CC(=O)Nc3ccc4cc3CCc3cncc(c3)Nc3ncc(Cl)c(n3)N4)CC2)n1` [Example A239, N-[6-Chloro-2,4,8,18,22-pentaazatetracyclo[14.3.1.1(3,7).1(9,13)]docosa-1(20),3(22),4,6,9(21),10,12,16,18-nonaen-12-yl]-2-[1-(3-cyano-4,6-dimethylpyridin-2-yl)piperidin-4-yl]acetamide tris(trifluoroacetate)] the “ALK % of inhibition” value [1] was 17%, the IC50 [2] was > 400 nM and the IC50 [3] was 16 nM. For the same compound, the IC50 [4] was > 400 nM and the IC50 [5] was 226 nM.
`N#Cc1c(Cl)cncc1N1CCC(CC(=O)Nc2ccc3cc2CCc2cncc(c2)Nc2ncc(Cl)c(n2)N3)CC1` [Example A240, 2-[1-(5-Chloro-4-cyanopyridin-3-yl)piperidin-4-yl]-N-[6-chloro-2,4,8,18,22-pentaazatetracyclo[14.3.1.1(3,7).1(9,13)]docosa-1(20),3(22),4,6,9(21),10,12,16,18-nonaen-12-yl]acetamide tris(trifluoroacetate)] was tested, and the “ALK % of inhibition” value [1] was 29%, the IC50 [2] was > 400 nM and the IC50 [3] was 1.5 nM. It also gave an IC50 [4] of 244 nM and an IC50 [5] of 80 nM.
In the case of `N#Cc1cc(F)c(Cl)nc1N1CCC(CC(=O)Nc2ccc3cc2CCc2cncc(c2)Nc2ncc(Cl)c(n2)N3)CC1` [Example A241, 2-[1-(6-Chloro-3-cyano-5-fluoropyridin-2-yl)piperidin-4-yl]-N-[6-chloro-2,4,8,18,22-pentaazatetracyclo[14.3.1.1(3,7).1(9,13)]docosa-1(20),3(22),4,6,9(21),10,12,16,18-nonaen-12-yl]acetamide tris(trifluoroacetate)], the “ALK % of inhibition” value [1] is reported as 14%, the IC50 [2] is reported as > 400 nM and the IC50 [3] is reported as 42 nM. The IC50 [4] was > 400 nM and the IC50 [5] was > 400 nM.
In the case of `O=C(CC1CCN(c2ccncc2)CC1)Nc1ccc2cc1CCc1cncc(c1)Nc1ncc(Cl)c(n1)N2` [Example A242, N-[6-Chloro-2,4,8,18,22-pentaazatetracyclo[14.3.1.1(3,7).1(9,13)]docosa-1(20),3(22),4,6,9(21),10,12,16,18-nonaen-12-yl]-2-(1-pyridin-4-ylpiperidin-4-yl)acetamide tris(trifluoroacetate)], the “ALK % of inhibition” value [1] is reported as 31%, the IC50 [2] is reported as > 400 nM and the IC50 [3] is reported as 40 nM. The IC50 [4] was > 400 nM and the IC50 [5] was > 400 nM.
With `O=C(CC1CCN(c2ccncc2F)CC1)Nc1ccc2cc1CCc1cncc(c1)Nc1ncc(Cl)c(n1)N2` [Example A243, N-[6-Chloro-2,4,8,18,22-pentaazatetracyclo[14.3.1.1(3,7).1(9,13)]docosa-1(20),3(22),4,6,9(21),10,12,16,18-nonaen-12-yl]-2-[1-(3-fluoropyridin-4-yl)piperidin-4-yl]acetamide tris(trifluoroacetate)] the “ALK % of inhibition” value [1] was 38%, the IC50 [2] was > 400 nM and the IC50 [3] was 20 nM. It also gave an IC50 [4] of 235 nM and an IC50 [5] of 119 nM.
`O=C(CC1CCN(c2ccnc(F)c2)CC1)Nc1ccc2cc1CCc1cncc(c1)Nc1ncc(Cl)c(n1)N2` [Example A244, N-[6-Chloro-2,4,8,18,22-pentaazatetracyclo[14.3.1.1(3,7).1(9,13)]docosa-1(20),3(22),4,6,9(21),10,12,16,18-nonaen-12-yl]-2-[1-(2-fluoropyridin-4-yl)piperidin-4-yl]acetamide tris(trifluoroacetate)] was tested, and the “ALK % of inhibition” value [1] was 66%, the IC50 [2] was > 400 nM and the IC50 [3] was 30 nM. The IC50 [4] was 170 nM and the IC50 [5] was 171 nM.
With `N#CCC(=O)N1CCC(CC(=O)Nc2ccc3cc2CCc2cncc(c2)Nc2ncc(Cl)c(n2)N3)CC1` [Example A245, N-[6-Chloro-2,4,8,18,22-pentaazatetracyclo[14.3.1.1(3,7).1(9,13)]docosa-1(20),3(22),4,6,9(21),10,12,16,18-nonaen-12-yl]-2-[1-(cyanoacetyl)piperidin-4-yl]acetamide bis(trifluoroacetate)] the “ALK % of inhibition” value [1] was 47%, the IC50 [2] was > 400 nM and the IC50 [3] was 3.2 nM. It also gave an IC50 [4] of 41 nM and an IC50 [5] of 117 nM.
`O=C(CC1CCN(c2ncco2)CC1)Nc1ccc2cc1CCc1cncc(c1)Nc1ncc(Cl)c(n1)N2` [Example A246, N-[6-Chloro-2,4,8,18,22-pentaazatetracyclo[14.3.1.1(3,7).1(9,13)]docosa-1(20),3(22),4,6,9(21),10,12,16,18-nonaen-12-yl]-2-[1-(1,3-oxazol-2-yl)piperidin-4-yl]acetamide tris(trifluoroacetate)] was tested, and the “ALK % of inhibition” value [1] was 39%, the IC50 [2] was > 200 nM and the IC50 [3] was 15 nM. For the same compound, the IC50 [4] was > 200 nM and the IC50 [5] was 120 nM.
In the case of `Cc1cc(N2CCC(CC(=O)Nc3ccc4cc3CCc3cncc(c3)Nc3ncc(Cl)c(n3)N4)CC2)no1` [Example A247, N-[6-Chloro-2,4,8,18,22-pentaazatetracyclo[14.3.1.1(3,7).1(9,13)]docosa-1(20),3(22),4,6,9(21),10,12,16,18-nonaen-12-yl]-2-[1-(5-methylisoxazol-3-yl)piperidin-4-yl]acetamide bis(trifluoroacetate)], the “ALK % of inhibition” value [1] is reported as 35%, the IC50 [2] is reported as > 200 nM and the IC50 [3] is reported as 6.9 nM. The IC50 [4] was 84 nM and the IC50 [5] was 72 nM.

Source: patent US8871753B2, “Macrocyclic compounds and their use as kinase inhibitors” (Incyte Corporation, priority 2008, dated 2014)
